In one series the test system is U87MG tumor. The experiment in a line: in vivo. The arrangement: species or system mice. The conditions noted are these: mouse. As for the experimental part:
(§1) Animal procedures were performed according to a protocol approved by the University of Southern California Institutional Animal Care and Use Committee. For static microPET scans, mice bearing U87MG xenografts were injected with 3.7 MBq (100 μCi) of ^18F-41 via the tail vein (n=3 for each group). At 0.5, 1, and 2 h post injection (p.i.), the mice were anesthetized with isoflurane (5% for induction and 2% for maintenance in 100% O2) using a knock-down box. With the help of a laser beam attached to the scanner, the mice were placed in the prone position and near the center of the field of view of the scanner. The 3-min static scans were then obtained. Images were reconstructed using a 2-dimensional ordered-subsets expectation maximization (OSEM) algorithm. No background correction was performed. Regions of interest (ROIs; 5 pixels for coronal and transaxial slices) were drawn over the tumor on decay-corrected whole-body coronal images. The maximum counts per pixel per minute were obtained from the ROI and converted to counts per milliliter per minute using a calibration constant. With the assumption of a tissue density of 1 g/mL, the ROIs were converted to counts per gram per min. Image ROI-derived % ID/g values were determined by dividing counts per gram per minute with injected dose. No attenuation correction was performed. Similarly, ^18F-43 was injected into healthy nude mice for microPET study.
(§2) Representative coronal microPET images of U87MG tumor-bearing mice (n=3/group) were obtained at different times after intravenous injection of about 3.7 MBq (100 μCi) of ^18F-41. The tumors after injection of the radiotracers were all clearly visible with good contrast to contralateral background at all time points measured. […] Quantification of tumor and major organ activity accumulation in the microPET scans was achieved by measuring regions of interest (ROIs) encompassing the entire organ on the coronal images. Tumor and major organ uptake of ^18F-41 is depicted in FIG. 3A. The tumor uptake of ^18F-41 in U87MG tumor was 1.98±0.33, 1.80±0.15, and 1.27±0.33% ID/g at 0.5, 1, and 2 h p.i., respectively. The uptake of the ^18F-41 decreased rapidly with time in the muscle, affording better image contrast at later time points after injection (2 h).

The nature of a further series: in vivo. On the set-up: species or system mice. Conditions: mouse, iv, 3.7 MBq, total radioactivity. As for the experimental part: as §1, §2
Series [1] can be described thus: Stability and isomerization of Diels-Alder conjugate 10 in water, CD3CN/H2O, PBS. The conditions noted are these: for rearrangement to ^19F-11, conversion: CD3CN/H2O. Format: physicochemical.
Series [2] is described as follows: Chemical stability of 16 (water, amine, thiol). Format: physicochemical. The conditions noted are these: 24 hours.
A short description of series [3]: Stability of 16 in human serum. Conditions: 24 hours. The format is in vitro ADME.
Series [4] can be described thus: Rate of Diels-Alder reaction with 3,6-di(2-pyridyl)-s-tetrazine (1a). The format is physicochemical. An excerpt:
The inventors have previously described tetrazine-trans-cyclooctene ligation (‘ITCO ligation’) as a method of bioconjugation that proceeds with fast reaction rates without need for catalysis (M. L. Blackman, M. Royzen and J. M. Fox, J. Am. Chem. Soc. 2008, 130, 13518-13519) trans-Cyclooctene derivatives are readily prepared from cis-cyclooctenes using a photochemical flow-reaction that the inventors developed (M. Royzen, G. P. A. Yap and J. M. Fox, J. Am. Chem. Soc. 2008, 130, 3760-3761). […] Thus, the reaction between trans-cyclooctene and 1a proceeds with a rapid rate (k2˜2000 M^−1 s^−1 in 9:1 MeOH:water), and is successful in cell media and cell lysate.
The inventors also used a photochemical flow reactor (M. Royzen, G. Yap, and J. Fox, J. Am. Chem. Soc. 2008, 130 (12), 3760) to synthesize 16, an analog of 7 with a functionalizable group. The rate of the reaction of compound 16 with 3,6-di(2-pyridyl)-s-tetrazine (1a) in methanol was k2=22000 M^−1s^−1, […] than the reaction of 1a with trans-cyclooctene in the same solvent. […] Compound 16 can be readily converted into carbamate derivatives, and compound 16 can be selectively conjugated to the protein thioredoxin using the conjugation of maleimide 26 (vide infra) to a cysteine residue, and that conjugate can in turn can take part in tetrazine ligation analogous to that shown below for compound 16.

For series [5] the following is noted: 9:1 MeOH:water; cited from earlier work.

Where two headings read alike, the source gives them in different places.

On to `N=C(N)NCCC[C@@H]1NC(=O)[C@H](CSC2CC(=O)N(CCNC(=O)CCCC(=O)Nc3ccc(C4=NN=C(c5ccccn5)C5CCCCC(OCCF)CC45)nc3)C2=O)NC(=O)[C@@H](Cc2ccc(O)cc2)NC(=O)[C@H](CC(=O)O)NC(=O)CNC1=O` (stereo partly drawn) [^18F-41], for which the excretion route entry in the series on U87MG tumor is listed as “mainly excreted through the renal system”. Besides, in “in vivo”, the tissue uptake (in general, the share of the injected amount in each gram of the tissue) at 0.5 h came out at 1.98 ± 0.33 %ID/g; the tissue uptake at 1 h was determined as 1.8 ± 0.15 %ID/g; the tissue uptake at 2 h turned out to be 1.27 ± 0.33 %ID/g.
Consider `FCCO[C@@H]1CCC[C@@H]2C(c3ccccn3)=NN=C(c3ccccn3)[C@H]2CC1` [compound 10, 7-(2-fluoroethoxy)-1,4-di(pyridin-2-yl)-4a,5,6,7,8,9,10,10a-octahydrocycloocta[d]pyridazine], for which the stability in water result in series [1] was “stable”. Besides, the “rearrangement to ^19F-11, conversion” value is recorded as 11% in series [1] (after 4 hours) and over 95% in series [1] (after 48 hours).
For `OC[C@@H]1[C@H]2CC/C=C/CC[C@@H]12` [compound 16], the stability entry in series [2] (5 mM ethanethiol in MeOH), in series [2] (5 mM n-butylamine in MeOH), in series [2] (water) and in series [3] was “no degradation” throughout. For the same compound, the “rate of reaction with 1a” value in series [4] (aqueous solvent systems, UV-vis spectroscopy) is recorded as “too fast to measure”. Moreover, in series [4] (methanol), the “k2, reaction with 1a” value is 22000 M⁻¹ s⁻¹. The “rate relative to reaction of 1a with trans-cyclooctene” value in series [4] (same solvent (methanol)) amounted to 18 times faster.
In the case of `C1=C/CCCCCC/1` [trans-cyclooctene], in series [5], the “k2, reaction with 1a” value is about 2000 M⁻¹ s⁻¹.

(Values after patent US10434197B2, “Tetrazine-trans-cyclooctene ligation for the rapid construction of radionuclide labeled probes” (University of Delaware, priority 2010, dated 2019).)
